Data from patent US20220202895A1, “PULSATIVE GNRH ADMINISTRATION FOR TREATING COGNITIVE DISORDERS” (INSERM (Institut National de la Santé et de la Recherche …, priority 2019, published 2022).
Entries after “also recorded” stand apart in the source; their conditions may differ.

Key:
[1] = tested on: GnRH-R expressing neurons of Gnrhr::Cre mice injected with hM4D(Gi) DREADD viral vector; conditions: mouse, in vivo, 3 mg/kg
[2] = tested on: GnRH-R expressing neurons of Gnrhr::Cre mice injected with hM4D(Gi) DREADD viral vector; conditions: mouse, in vivo, 3 mg/kg; remark: listed apart in the source
wild-type mice [3] = assay: LH pulsatility by serial tail blood sampling and LH ELISA; format: in vivo, mouse; conditions: continuous subcutaneous infusion by osmotic pump, 15 days
Method: LH assays: LH levels were determined by the previously described sensitive LH sandwich ELISA (Steyn et al., 2013). A 96-well high-affinity binding microplate (Corning) was coated with 50 μL of capture antibody (monoclonal antibody, anti-bovine LHβ subunit, 518B7; L. Sibley; University of California, UC Davis) at a final dilution of 1:1,000 (in 0.1M Na2CO3/NaHCO3, pH 9.6) and incubated overnight at 4° C. Wells were incubated with 200 μL blocking buffer (5% (w/v) skimmed milk powder in 1×PBS-T pH 7.4 (0.1 M PBS, 0.05% Tween 20 (Sigma #P9416)) for 2 hours at room temperature (RT). A standard curve was generated using a twofold serial dilution of mouse LH (reference preparation, AFP-5306A; National Institute of Diabetes and Digestive and Kidney Diseases National Hormone and Pituitary Program (NIDDK-NHPP)) in 1% (w/v) BSA (Sigma, A9418) in 1×PBS-T. The LH standards and blood samples were incubated with 50 μL of detection antibody (rabbit LH antiserum, AFP240580Rb; NIDDK-NHPP) at a final dilution of 1:10,000 for 1.5 hours at RT. […] The reaction was stopped by the addition of 50 μL of 3M HCl to each well, and the absorbance was measured at 450 nm.
Adult mice were habituated with daily handling. […] LH levels were then determined using the protocol described before. […]

wild-type mice [4] = conditions: mouse, in vivo
Method: Habituation/dishabituation test. The habituation/dishabituation test was used to assess the ability to differentiate between different odours (Breton-Provencher et al., 2009). Mice were single-housed for 8 days prior to testing. This olfactory test included a presentation of acetophenone (00790, Sigma) for habituation and octantal (05608, Sigma) for dishabituation, or vice versa. Before the test, mice were allowed to explore the open-field area and an empty odour box for 30 min. After this habituation period, mice were sequentially presented with one odour for four consecutive trials for a duration of 1 min, and an inter-trial interval of 10 min was maintained to ensure the replacement of the odour. After four consecutive trials, a second odour was presented during a 1 min trial. Odours (20 μl of 1:1000 dilution) were administered on a filter paper and placed in a perforated plastic box to avoid direct contact with the odour stimulus. The measurement consisted of recording the total amount of time the mouse spent sniffing the object during different trials.

wild-type mice [5] = conditions: mouse, in vivo; remark: listed apart in the source
Method: Novel object recognition test. Recognition memory was assessed using the novel object recognition test (Leger et al., 2013). Mice were single-housed for 5 days prior to testing. On day 1, two identical objects (A+A) were placed within the open-field arena on opposite sides of the cage, equidistant from the cage walls. Each mouse was placed within the two objects and allowed to explore them for 15 min. Day 2 consisted of two phases, a familiarization and a test phase. During the familiarization phase (trial 1) that lasted 15 min, mice explored two other identical objects (B+B). After this phase, mice were placed back in its home cage for 1 hour before starting the test phase. During the test phase, one object from trial 1 and a completely new object (B+C) were placed within the open-field area and mice were allowed to explore them for 5 min (trial 2). The object recognition score was calculated as the time spent exploring the new object (trial 2) over the total exploration time, and is used to represent recognition memory function. […]

Row | Compound | olfactory performance (ability to discriminate between different odors) [1] | cognitive performance [2] | LH pulsatility (pulse frequency and amplitude) (wild-type mice [3]) | olfactory performance (wild-type mice [4]) | cognitive performance (wild-type mice [5])
1 | C[N+]1([O-])CCN(C2=Nc3cc(Cl)ccc3Nc3ccccc32)CC1 [CNO, clozapine-n-oxide] | dramatically reduced; also recorded: impaired | dramatically reduced; also recorded: impaired |  |  | 
2 | LUTRELEF®: a GnRH peptide of clinic use to restore fertility in patients with hypogonadotropic hypogonadism; GnRH acetate/diacetate (gonadorelin), Ferring Pharmaceuticals |  |  | prevented; also recorded: blunted LH pulsatility | marked deleterious effects | marked deleterious effects
